# Measurements published in patent publication US20110245265A1, “CXCR4 ANTAGONISTS FOR KIDNEY INJURY” (GENZYME CORPORATION, priority 2008, published 2011).
# “Also recorded” adds a separate entry of the source. Like-named read-outs stand apart in the source and are kept apart here.
# Key:
# [1] = system: renal ischemia-reperfusion injury; test: Kidney histology: injury score (hematoxylin/eosin) and TUNEL score after renal ischemia-reperfusion; format: in vivo, rat
# Method: Rats were dosed as described for Group 1 rats in FIG. 1A. […] FIGS. 2C and 2D show graphs of the Injury and TUNEL score, respectively. Injury was evaluated by scoring hematoxylin and eosin stained kidney sections on a scale of 1 to 4 for proteinaceous cast formation, cell exfoliation, vascular congestion and loss of tubular architecture. TUNEL staining was carried out on kidney sections to identify apoptotic cells that were then quantified by Metamorph analysis.
# (§1) Data for FIGS. 8A, 8B and 8C were generated as described for FIGS. 2C, 2D and 3C, respectively.
# [2] = system: myeloperoxidase activity; details: both regimens of FIG. 6A; FIG. 8D
# Text: as §1
# [3] = system: renal ischemia-reperfusion injury; test: Renal function (creatinine, BUN) in rat model of renal ischemia-reperfusion injury; format: in vivo; details: for effect on creatinine: FIG. 7B; for renal function loss / acute kidney injury: P≦0.05; for plasma creatinine: not significant (P>0.05), FIG. 5B; for creatinine levels: FIG. 1B
# Method: This example illustrates the effect of multiple dosing strategies of AMD3465 in an in vivo rat model of renal ischemia-reperfusion injury in which the renal artery and vein of both kidneys were clamped for 45 minutes followed by removal of the clamps and reperfusion with blood. […] Group 1 follows this dosing regimen as illustrated in FIG. 1A. FIGS. 1B and 1C show creatinine and BUN levels in mg/dL of Group 1 subjects compared to subjects following different dosing strategies shown in FIG. 1A using 10 mg/kg. Also shown in FIG. 1A—Group 2 was dosed at −15 min and +2 hrs and +4 hrs and Group 3 at time 0 and +2 hrs.
# FIG. 5A diagrams the dosing regimen timeline for groups 1 and 2. FIGS. 5B, 5C and 5D show the creatine (serum or plasma) and blood urea nitrogen levels of the AMD treated groups, vehicle treated and normal subjects. Dosing was carried out with two 1 mg/kg administrations (Group 1) or 5 mg/kg in a single dose (Group 2). […] FIG. 5C and FIG. 5D illustrate individual data points of each rat for plasma creatinine and blood urea nitrogen, respectively.
# FIG. 6A illustrates the dosing regimen.
# FIG. 7A illustrates the dosing regimen. Group 1 was administered 0.01 mg/kg both 15 minutes before and 3 hours after ischemia; Group 2 was administered 0.1 mg/kg at 15 minutes before.
# [4] = system: white blood cells; details: normal rats; single dose 1 mg/kg at time 0 versus 0.1 mg/kg twice (time 0 and 3 hrs later); FIG. 9
# [5] = system: renal ischemia-reperfusion injury; test: Microvascular permeability: rat IgG immunostaining of kidney and serum vWF ELISA after renal ischemia-reperfusion; format: in vivo
# Text: Leakage of plasma proteins and secretion of von Willebrand Factor (vWF) are two indicators of the loss of microvascular integrity. FIGS. 3A and 3B are images of kidney tissue harvested 24 hrs after renal ischemia-reperfusion from subjects treated with the vehicle and AMD3465, respectively; tissue sections were immunostained with an antibody that recognizes rat immunoglobulin (IgG) and immunoreactivity quantified by Metamorph analysis illustrated in FIG. 3C. […] Renal ischemia-reperfusion rats that received AMD3465 represent Group 1 rats in FIG. 1A.
# as §1
# [6] = system: IL-6/IL-10 mRNA expression; details: Group 1 dosing
# [7] = rat, in vivo
# Method: FIG. 4A provides body weight data of subjects administered vehicle, and subjects in Group 1 and Group 2 (Groups described in FIG. 1A). […] FIG. 4B gives white blood cell (WBC) counts at 24 hours of Group 1 and 2 subjects, subjects administered vehicle and normal subjects administered AMD3465.
smiles,measurement,setting,value
"c1cc(CN2CCCNCCNCCCNCC2)ccc1CN1CCCNCCNCCCNCC1 [AMD3100, 1,1′-[1,4-phenylene-bis(methylene)]-bis-1,4,8,11-tetraazacyclotetradecane]",TUNEL score,"[1]; regimen of FIG. 6A (0.1 mg/kg twice or 1.0 mg/kg once), FIG. 8B",significant effect
same,injury score,"[1]; regimen of FIG. 6A (0.1 mg/kg twice or 1.0 mg/kg once), compared to vehicle, FIG. 8A",lowered significantly
same,"myeloperoxidase activity, a measure of neutrophilic infiltration into the kidney tissue",[2],lowered myeloperoxidase activity
same,effect on creatinine,"[3]; 0.01 mg/kg both 15 minutes before and 3 hours after ischemia (Group 1, FIG. 7A)",less positive results
same,renal function loss / acute kidney injury,"[3]; 0.1 mg/kg 15 minutes prior to ischemia and 3 hrs later (Group 1, FIG. 6A)",therapeutically effective
same,effect on creatinine,"[3]; 0.1 mg/kg at 15 minutes before ischemia (Group 2, FIG. 7A)",comparable to that shown in FIG. 6B
same,renal function loss / acute kidney injury,"[3]; 1 mg/kg only at 15 minutes prior to ischemia (Group 2, FIG. 6A)",therapeutically effective
same,rats that demonstrated lower plasma creatinine (individual data points),"[3]; FIG. 5C, dosing of FIG. 5A",five
same,plasma creatinine levels,"[3]; regimens of FIG. 6A (0.1 mg/kg twice or 1 mg/kg once), FIG. 6B",reduction
same,BUN levels,"[3]; regimens of FIG. 6A (0.1 mg/kg twice or 1 mg/kg once), FIG. 6C",reduction
same,plasma BUN,"[3]; regimens of FIG. 7A (0.01 mg/kg twice or 0.1 mg/kg once), FIG. 7C compared with FIG. 6C",only slightly less effective
same,plasma creatinine,"[3]; single dose of 5 mg/kg (Group 2, FIG. 5A)",decrease
same,plasma creatinine,"[3]; two doses of 1 mg/kg (Group 1, FIG. 5A)",decrease
same,mobilization of white blood cells,[4],Comparable results
same,luminal IgG score,"[5]; regimen of FIG. 6A (0.1 mg/kg twice or 1.0 mg/kg once), FIG. 8C",significant effect
"c1ccc(CNCc2ccc(CN3CCCNCCNCCCNCC3)cc2)nc1 [AMD3465, N-[1,4,8,11-tetraazacyclotetradecanyl-1,4-phenylene-bis-(methylene)]-2-aminomethyl-pyridine]",structural integrity of the kidney,"[1]; Group 1 dosing (10 mg/kg -15 min, +2 hrs), 24 hr post-reperfusion, vs vehicle, 10 mg/kg",maintained structural integrity; also recorded: remained intact
same,renal injury (Injury score),"[1]; Group 1 dosing (10 mg/kg -15 min, +2 hrs), 24 hr post-reperfusion, vs vehicle, FIG. 2C, 10 mg/kg",decreasing renal injury; also recorded: significantly reduced
same,cell death (TUNEL score),"[1]; Group 1 dosing (10 mg/kg -15 min, +2 hrs), 24 hr post-reperfusion, vs vehicle, FIG. 2D, 10 mg/kg",decreasing; also recorded: significantly reduced
same,ratio of IL-6/IL-10 mRNA expression,"[6]; 5 hrs post-reperfusion, compared to vehicle",drops more drastically
same,ratio of IL-6/IL-10 mRNA expression,[6]; 24 hrs post-reperfusion,has dropped
same,body weight,[7],lost less body weight
same,tolerability,[7],well tolerated
same,white blood cell (WBC) counts,[7],comparable
same,loss of renal function based on levels of serum creatine and serum blood urea nitrogen (BUN),"[3]; 10 mg/kg 15 min prior to ischemia and 2 hrs later (Group 1), 24 hrs after reperfusion",ameliorated the loss of renal function
same,creatinine levels,"[3]; Group 1: 10 mg/kg at -15 min and +2 hrs, 24 hrs after reperfusion, P<0.05",closest to normal
same,BUN levels,"[3]; Group 1: 10 mg/kg at -15 min and +2 hrs, 24 hrs after reperfusion, FIG. 1C, P<0.05",closest to normal
same,creatinine levels,"[3]; Group 2: 10 mg/kg at -15 min, +2 hrs and +4 hrs, 24 hrs after reperfusion",closest to normal
same,BUN levels,"[3]; Group 2: 10 mg/kg at -15 min, +2 hrs and +4 hrs, 24 hrs after reperfusion, FIG. 1C",closest to normal
same,frequency of serum proteins measured by rat IgG in the renal tubular lumen,"[5]; Group 1 dosing, kidney harvested 24 hrs after renal ischemia-reperfusion, vs vehicle, FIG. 3C",less
same,"circulating levels of the cleaved form of von Willebrand factor (serum, ELISA)","[5]; Group 1 dosing, vs vehicle, FIG. 3D",lower
